# Results as given in patent US7323598B2, “Preparation of xylylenediamine (XDA)” (BASF Aktiengesellschaft, priority 2003, dated 2008).
# Experiment: Investigations of solubility of IPN in different solvents
# Assay type: physicochemical
# Conditions: for solubility of IPN in NMP: solvent NMP; for solubility of IPN in mesitylene: solvent mesitylene; for solubility of IPN in pseudocumene: solvent pseudocumene
# Procedure: Investigations of Solubility of IPN in Different Solvents
# At 60° C., the solubility of IPN in mesitylene or pseudocumene is in each case below 10% by weight.
compound,measurement,setting,value
"N#Cc1cccc(C#N)c1 [IPN, 1,3-dicyanobenzene]",solubility of IPN in NMP,60° C.,approx. 26 % by weight
same,solubility of IPN in NMP,90° C.,approx. 41 % by weight
same,solubility of IPN in mesitylene,60° C.,below 10 % by weight
same,solubility of IPN in mesitylene,90° C.,12 % by weight
same,solubility of IPN in pseudocumene,60° C.,below 10 % by weight
same,solubility of IPN in pseudocumene,90° C.,20 % by weight
